For experiment [1], the target named is T1, Serotonin 3 (5-HT3) receptor (Homo sapiens) (UniProt P46098+A5X5Y0+O95264+Q70Z44+Q8WXA8). Kind of experiment: Intrinsic activity towards 5-hydroxytryptamine 3 receptor was determined by Benzold-Jarisch reflex (peripheral assay); A: agonist. It is filed as functional. The conditions noted are these: filed as agonist.
Experiment [2] addresses T1, Serotonin 3 (5-HT3) receptor (Homo sapiens). The experiment can be described thus: Intrinsic activity towards CNS 5-hydroxytryptamine 3 receptor was determined; A: agonist. The conditions noted are these: filed as agonist. It is filed as functional.
For experiment [3] the target is unchanged. Kind of experiment: Intrinsic activity towards 5-hydroxytryptamine 3 receptor was determined by Benzold-Jarisch reflex (peripheral assay); ANT: antagonist. It counts as functional. The conditions noted are these: filed as antagonist.
The target of experiment [4] is Serotonin 3 (5-HT3) receptor. The experiment can be described thus: Binding affinity towards 5-hydroxytryptamine 3 receptor. It is filed as protein-complex assay.
For experiment [5], the target named is T1, Serotonin 3 (5-HT3) receptor (Homo sapiens). Kind of experiment: Intrinsic activity towards CNS 5-hydroxytryptamine 3 receptor was determined; NA: not active. It is filed as protein-complex assay.
In experiment [6] the test system is Serotonin 3 (5-HT3) receptor. The experiment can be described thus: Binding affinity of compound towards 5-hydroxytryptamine 3 receptor; NA: not active. It counts as protein-complex assay.
The target of experiment [7] is T1, Serotonin 3 (5-HT3) receptor (Homo sapiens). The experiment can be described thus: Intrinsic activity towards 5-hydroxytryptamine 3 receptor was determined by Benzold-Jarisch reflex (peripheral assay); PA: Partial agonist. It is filed as functional. The conditions noted are these: filed as partial agonist.
For experiment [8] the target is unchanged. Kind of experiment: Intrinsic activity towards CNS 5-hydroxytryptamine 3 receptor was determined; ANT: Antagonist. It counts as functional. The conditions noted are these: filed as antagonist.

pKi: −log10 of the molar value. Active and inactive are the calls of the source. No cut-off for these calls is given here.

As to `N=C(N)NC(=N)Nc1cccc(Cl)c1`, the Intrinsic activity result in experiment [1] and in experiment [2] was “Agonist” throughout.

As to `N=C(N)Nc1cccc(Cl)c1`, the Intrinsic activity entry in experiment [1] is “Agonist”.

On to `N=C(N)NC(=N)Nc1ccccc1`, for which the Intrinsic activity result in experiment [1] and in experiment [2] was “Agonist” throughout.

As to `O=[N+]([O-])c1ccc2nc(N3CCNCC3)ccc2c1` [6-NITROQUIPAZINE], the Intrinsic activity entry in experiment [3] was “Antagonist”. The molecule also showed a pKi in experiment [4] of 7.24.

For the molecule `CN1CCN(c2cc3cc(C(F)(F)F)ccc3n3cccc23)CC1`, the Intrinsic activity result in experiment [3] is “Antagonist”. Moreover, the Intrinsic activity result in experiment [5] is “inactive”. Besides, the Ki result in experiment [6] was “Not Active”.

Take `Cc1[nH]c2ccc(O)cc2c1CCN`: the Intrinsic activity result in experiment [1] and in experiment [2] was “Agonist” each time.

Turning to `N=C(N)Nc1ccc2ccccc2c1`, in experiment [1], the Intrinsic activity result was “Agonist”.

For `c1ccc2nc(N3CCNCC3)ccc2c1`, the Intrinsic activity entry in experiment [7] is “Partial agonist”; in experiment [2], “Agonist”.

In the case of `Clc1ccc2ccc(N3CCNCC3)nc2c1`, the Intrinsic activity entry in experiment [3] was “Antagonist”. This molecule gave a pKi in experiment [4] of 7.42.

As to `CN1CCN(c2nc3ccccc3c3c2CCCC3)CC1`, the pKi in experiment [4] is 9.64.

`CN1CCN(c2nc3ccccc3c3ccccc23)CC1`: the Intrinsic activity entry in experiment [2] is “Agonist”. The molecule further had a pKi in experiment [4] of 8.72.

As to `CN1CCN(c2cc3cc(F)ccc3n3cccc23)CC1`, the figures for the Intrinsic activity result in experiment [3] and in experiment [2] were “Antagonist” and “Agonist”, respectively. The molecule further had a pKi in experiment [4] of 9.29.

As for `NCCc1c[nH]c2ccc(O)cc12`, the Intrinsic activity result in experiment [1] and in experiment [2] was “Agonist” throughout.

Consider `CN1CCN(c2nc3ccccc3c3c2CC2CCC3C2)CC1` (stereo not drawn), for which the Intrinsic activity entry in experiment [8] is “Antagonist”. In experiment [4], this molecule showed a pKi of 9.08.

`NC1CCN(c2cccc(Cl)n2)CC1`: in experiment [2], the Intrinsic activity result is “Agonist”. Besides, the pKi in experiment [4] was 6.99.

Take `N=C(N)NC(=N)Nc1ccc2ccccc2c1`: the Intrinsic activity result in experiment [1] is “Agonist”.

Consider `CN1CCN(c2nc3ccccc3n3cccc23)CC1`, for which the Intrinsic activity result in experiment [3] is “Antagonist”; in experiment [2], “Agonist”. The molecule also had a pKi in experiment [4] of 9.64.

A word on the pKi: it is the negative decadic logarithm of the Ki, by convention in mol/L. Low values mean a high Ki, high ones a low Ki.

Values taken from ChEMBL document CHEMBL1135960 (Bioorg Med Chem Lett, 2002).
